Consider 21 compounds from US7829500B2, “Plant-activating agent” (Kao Corporation, priority 2000, dated 2010).

One assay deals with Chlorella cells. Briefly: Test of reproductive ability using chlorella cells. The format is cell-based. The conditions noted are these: Table 1; relative number of chlorella cells after 14 days, non-treated area = 100; LS medium; concentration (ppm) as in table. On the procedure:
Chlorella cells which were green cells of a […] were cultured with vibration in an inorganic salt medium. […] The concentration of the cells was set to 1.00×10^5 (cells per ml) at the start of the test. […] As the inorganic salt medium, a Linsmaier-Skoog (LS) medium was used. Three media were used as the treated areas and the non-treated areas every the plant-activating agent or the plant-activating composition. The average thereof was compared with that in the non-treated areas.
As for `CC(O)C(=O)O` (stereo not drawn) [Comparative product 1-1, Lactic acid, reference compound], the reproductive ability is given as 99. For “Citric acid C12 monoamide [Inventive product 1-8]”, the reproductive ability is given as 128. Still for that read-out and setting: the same measure for “Citric acid C14 monoamide [Inventive product 1-6]”: 136. Still for that read-out and setting: in the case of “Citric acid C18 diester [Inventive product 1-7]” it was 138. “Citric acid C18 monoamide [Inventive product 1-5]” came in with a reproductive ability of 139. Same read-out and setting: in the case of “Citric acid C18 monoester [Inventive product 1-1]” it was 142. The compound “Citric acid C18 monoester potassium salt [Inventive product 1-3]” displayed a reproductive ability of 138.

Staying with this assay, now noted: Table A1; relative number of chlorella cells after 14 days, non-treated area = 100.
On to `CC(=O)O` [Comparative product A1-1, Acetic acid, reference compound], for which the reproductive ability is 90. Same read-out and setting: the same measure for `CCC(=O)O` [Comparative product A1-3, Propionic acid, reference compound]: 94.

`CC(O)C(=O)O` (stereo not drawn) [Comparative product A1-4, Lactic acid, reference compound] yielded a reproductive ability of 93.

`CCCCCCCCCCCCCC(=O)O` [Inventive product A1-1, Myristic acid (LUNAC MY-98)] gave a reproductive ability of 127.

Compound `CCCCCCCC/C=C\CCCCCCCC(=O)O` [Inventive product A1-5, Oleic acid] showed a reproductive ability of 148. Still for that read-out and setting: the same measure for `CCCCCCCCCCCCCCCCCCCCCC(=O)O` [Inventive product A1-6, Behenic acid (LUNAC BA)]: 150; for `CCCCCCCCCCCCCCCCCCCCCCCCCCCCCC(=O)O` [Inventive product A1-7, Melissic acid]: 138.

Still in this assay, the particulars now being: Table B1; relative number of chlorella cells after 14 days, non-treated area = 100.
`OCC(O)CO` [Comparative product B1-1, Glycerol, reference compound] registered a reproductive ability of 98.

Turning to `CCCCCCCCCCCCCCCCCCOCC(O)CO` (stereo not drawn) [Inventive product B1-4, Batyl alcohol], the reproductive ability is 130. Turning to `CCCCCCCCCCCCCCCCCCOC(=O)C(O)CO` (stereo not drawn) [Inventive product B1-6, Glyceric acid stearyl ester], the reproductive ability is listed as 122. Compound `CCCCCCCCCCCCCCCCNC(=O)C(O)CO` (stereo not drawn) [Inventive product B1-7, Glyceric acid cetyl amide] showed a reproductive ability of 120.

The compound `O=C1OCC(CO)O1` (stereo not drawn) [Inventive product B1-9, Glycerol carbonate] came in with a reproductive ability of 126. Still for that read-out and setting: the same measure for “Hexaglycerol ester of stearic acid [Inventive product B1-8]”: 123. With “Stearic acid monoglyceride [Inventive product B1-3]”, the reproductive ability turned out to be 132.
